Measurements as given in PMC8560754, “Bridging the gap between in silico and in vivo by modeling opioid disposition in a kidney proximal tubule microphysiological system” (Scientific Reports, 2021).
Like-named read-outs stand apart in the source and are kept apart here. Marks after values point to notes of the source that are not given here.

Key:
[1] = test system: human primary proximal tubular epithelial cells (PTEC) tubule in VPT-MPS; assay: Transport of morphine and M6G in the vascularized proximal tubule MPS (VPT-MPS); format: in vitro ADME; settings: for CLint,sec: VPT-MPS derived intrinsic secretion clearance; for CLsecretion, each proximal subsegment S1, S2, and S3: clearance value of each proximal subsegment; for CLsecretion, each proximal subsegment S1, S2, and S3 / CLsecretion: scaled up from VPT-MPS; for CLsecretion: unbound intrinsic kidney active secretion clearance at proximal tubule, total; for CLapp, passive diffusion / CLapp, active secretion: one representative donor; for CLapp, passive diffusion / Concentration in endothelial cell / Efflux rate into lumen / CLapp, active secretion: mean ± SD; for Concentration in endothelial cell / Efflux rate into lumen: representative donor of Fig 2
Procedure: (§1) The inner chamber of dual-channel MPS devices (Duplo, Fig. 1) (https://www.nortisbio.com/) was dried, filled with 6 mg/mL of rat tail collagen I, and left overnight to allow the collagen I matrix to solidify. The mandrels of the MPS platforms were then removed, leaving two hollow channels through the collagen I matrix. The PTEC channel was coated with a 5 µg/mL mouse collagen IV to facilitate human PTECs adhesion. Cultures of primary kidney epithelial cells were subjected to trypsin digestion to obtain single cell suspensions. The cells were counted and resuspended with PTECs culture media at a concentration of 20 × 10^6 cells/mL and 2–2.5 µL were injected into the collagen IV-coated channel. Cells were allowed to attach for 3 h before starting perfusion at a rate of 1.0 µL/min. A 1.0 µL/min perfusion of DMEM/F12 media containing ITS-A, 50 nM hydrocortisone, penicillin–streptomycin and amphotericin B was then initiated. Following 6 days under these culture conditions, the epithelial tubule was established and perfusion to the channel was stopped for a brief period. The parallel vacant channel was equilibrated with EGM-2 media containing 2% FBS for 2 h at 1.0 µL/min. Then, HUVECs (passages 5–10) were seeded into the equilibrated channel and allowed to attach for 30 min to establish an endothelial vessel. Flow to both channels was resumed at 1.0 µL/min with both channels receiving their respective culture medium. The day after seeding HUVEC, VPT-MPS were used for transport experiments. Prior to the beginning of experiments, a visual inspection under light microscope was performed to confirm complete (100%) coverage of both HUVEC vessel and PTEC tubule, respectively.
(§2) The flow rate of flow through both channels was set at 1 µL/min. Effluents from the vessel and the tubule were collected every 2 h, and drug concentrations in the samples were determined LC/MS/MS. Transport experiments were conducted across 3 different donors. Effluent measurements were extended out to 24 h in order to reach steady-state levels in solute output.

[2] = as above; format: in vitro ADME, human; settings: human, with probenecid (1 mM) and tetraethylammonium (1 mM), read-out: Permeability
Procedure: as §1, §2

[3] = human, cited from earlier work
[4] = blood-to-plasma ratio; cited from earlier work
[5] = ref www.drugbank.ca; cited from earlier work
[6] = test system: PTECs monolayers; assay: Bidirectional transport across PTECs monolayers in conventional 2D Transwell; format: in vitro ADME, human; settings: for CLint, secretion: considered as zero since no active secretion was observed in 2D Transwell; for Papp A→B / Papp B→A: Inhibitor (-), 1.5 hour incubation; for Papp A→B: read-out: Papp Apical to Basal; for Papp B→A: read-out: Papp Basal to Apical
Procedure: (§3) PTECs were seeded on polyester membrane HTS 24-well Transwell^TM inserts at 0.5-1 ×10^5 cells/well and cultured for 7-10 days until confluency. Transepithelial electrical resistance
(§4) (TEER) across PTECs monolayers was monitored by an EVOM meter from World Precision Instruments (Berlin, Germany). TEER values were normalized to culture surface areas of Transwell^TM inserts. Wells with TEER reading from 25-150 ohm∙cm^2 were used for experiments.
(§5) Samples were collected from basal (for apical to basal transport) or apical (for basal to apical transport) insert and analyzed by LC/MS/MS. Concentrations were used to determine apparent permeability (Papp) by using the following equation: […]

[7] = as above; format: in vitro ADME, human; settings: human; for Papp at 1.5 h, 1 µM: PTECs permeability study data used for CLr prediction; for Papp A→B at 1.5 h, 1 µM / Papp B→A at 1.5 h, 1 µM: Inhibitor (-), 1.5 hour incubation; for Papp A→B at 1.5 h, 1 µM: read-out: Papp Apical to Basal; for Papp B→A at 1.5 h, 1 µM: read-out: Papp Basal to Apical
Procedure: as §3, §4, §5

[8] = Bidirectional transport across MDCK monolayers in conventional 2D Transwell; format: in vitro ADME; settings: dog, Inhibitor (-), 1.5 hour incubation
From the text: as §5

[9] = fraction of morphine metabolism to M6G; cited from earlier work
[10] = Morphine-M6G parent-metabolite full body PBPK model; design: species or system human; settings: hepatic clearance; systemic clearance minus renal clearance

CN1CC[C@]23c4c5ccc(O)c4O[C@H]2[C@@H](O[C@@H]2O[C@H](C(=O)O)[C@@H](O)[C@H](O)[C@H]2O)C=C[C@H]3[C@H]1C5 [M6G, morphine-6-glucuronide]
decrease in intrinsic clearance by transporter inhibitors ([1]; 1 mM probenecid and 1 mM tetraethylammonium, average of three donors): 63.6%
CLint,sec ([1]; Donor1): 15.6 ± 10.5 µL/h/MPS
CLint,sec ([1]; Donor2): 1.29 ± 1.09 µL/h/MPS
CLint,sec ([1]; Donor3): 22.9 µL/h/MPS
CLsecretion, each proximal subsegment S1, S2, and S3 [1]: 14.5 L/h
CLint, active secretion, range between PTECs donors ([1]; three donors): 1.29–22.9 µL/h/VPT-MPS
CLsecretion [1]: 43.5 L/h
CLapp, passive diffusion ([1]; with inhibitor): 1.92±2.02 μL/hr/MPS
Concentration in endothelial cell ([1]; with inhibitor): 639 ± 34 nM
Efflux rate into lumen ([1]; with inhibitor): 0.0191 ± 0.0192 pmol/min/MPS
CLapp, active secretion ([1]; without inhibitor): 7.90±3.86 μL/hr/MPS
Concentration in endothelial cell ([1]; without inhibitor): 640 ± 58 nM
Efflux rate into lumen ([1]; without inhibitor): 0.110 ± 0.043 pmol/min/MPS
Papp at 24 h, 1 µM ([2]; Donor1, VPT-MPS): 25.9 ± 28.5 ×10⁻⁶ cm/s
Papp at 24 h, 1 µM ([2]; Donor2, VPT-MPS): 9.74 ± 11.1 ×10⁻⁶ cm/s
Papp at 24 h, 1 µM ([2]; Donor3, VPT-MPS): 41.8 ×10⁻⁶ cm/s
Papp at 24 h, 1 µM ([2]; PBPK model parameter, experimentally determined using VPT-MPS): 23.8 ×10⁻⁶ cm/s
CLr,observed [3]: 9.20–14.3[20],[21] L/h
CLr,observed ([3]; ref 5,6 (supplement)): 9.20-14.3 ^5,6 L/hr
B/P [4]: 0.55^e
pKa (base) [5]: 9.12^b
CLint, secretion ([6]; Donor2): 0 µL/h
CLint, secretion ([6]; Donor3): 0 µL/h
CLint, secretion ([6]; Donor5): 0 µL/h
CLint, secretion ([6]; Donor6): 0 µL/h
Papp at 1.5 h, 1 µM ([7]; Donor3): 40.1 ×10⁻⁶ cm/s
Papp at 1.5 h, 1 µM ([7]; Donor5): 28.6 ×10⁻⁶ cm/s
Papp at 1.5 h, 1 µM ([7]; Donor6): 40.1 ×10⁻⁶ cm/s
Papp A→B at 1.5 h, 1 µM ([7]; Donor2): 58 ×10⁻⁶ cm/s
Papp B→A at 1.5 h, 1 µM ([7]; Donor2): 54.6 ×10⁻⁶ cm/s
Papp A→B at 1.5 h, 1 µM ([7]; Donor3): 40.1 ± 7.5 ×10⁻⁶ cm/s
Papp B→A at 1.5 h, 1 µM ([7]; Donor3): 24.9 ± 14.2 ×10⁻⁶ cm/s
Papp A→B at 1.5 h, 1 µM ([7]; Donor4): 22.5 ×10⁻⁶ cm/s
Papp B→A at 1.5 h, 1 µM ([7]; Donor4): 12.2 ×10⁻⁶ cm/s
Papp A→B at 1.5 h, 1 µM ([7]; Donor5): 28.6 ± 1.6 ×10⁻⁶ cm/s
Papp B→A at 1.5 h, 1 µM ([7]; Donor5): 28.6 ± 2.1 ×10⁻⁶ cm/s
Papp A→B at 1.5 h, 1 µM ([7]; Donor6): 55.6 ×10⁻⁶ cm/s
Papp B→A at 1.5 h, 1 µM ([7]; Donor6): 42.2 ×10⁻⁶ cm/s
Papp A→B at 1.5 h, 1 µM ([8]; read-out: Papp Apical to Basal): 3.86 ×10⁻⁶ cm/s
Papp B→A at 1.5 h, 1 µM ([8]; read-out: Papp Basal to Apical): 1.53 ± 0.17 ×10⁻⁶ cm/s

CN1CC[C@]23c4c5ccc(O)c4O[C@H]2[C@@H](O)C=C[C@H]3[C@H]1C5 [Morphine, reference compound]
CLsecretion, each proximal subsegment S1, S2, and S3 [1]: 13.1 L/h
CLsecretion [1]: 39.3 L/h
CLapp, passive diffusion ([1]; with inhibitor): 2.09±1.58 μL/hr/MPS
CLapp, active secretion ([1]; without inhibitor): 6.98±3.94 μL/hr/MPS
fm,M6G [9]: 0.1^k
CLh [10]: 75.3^i L/h
B/P [4]: 1.08^e

Nc1ccc(C(=O)NCC(=O)O)cc1 [[^3H] PAH, para-aminohippuric acid, reference compound]
active transport in 2D Transwell ([6]; 2D culture, probe substrate of OAT1 and OAT3): negligible active transport
Papp A→B ([6]; Donor2): 72.4 ×10⁻⁶ cm/s
Papp B→A ([6]; Donor2): 69.6 ×10⁻⁶ cm/s
Papp A→B ([6]; Donor3): 31.7 ×10⁻⁶ cm/s
Papp B→A ([6]; Donor3): 23 ×10⁻⁶ cm/s
Papp A→B ([6]; Donor6): 71.7 ×10⁻⁶ cm/s
Papp B→A ([6]; Donor6): 67.3 ×10⁻⁶ cm/s
